The results in this text go back to US8163909B2, “Substituted hydroxyethyl amine compounds as beta-secretase modulators and methods of use” (Amgen Inc., priority 2007, dated 2012).

Each structure is given as a SMILES string. Where two headings read alike, the source gives them in different places.

Series [1] concerns Aβ40 in conditioned medium of cells stably expressing Amyloid Precursor Protein (APP). Put plainly: In vitro BACE cell-based assay (Aβ40 in conditioned medium, sandwich ELISA).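 Also: compounds added as a dilution series, secreted peptide quantified by europium time-resolved fluorescence readout, potency fitted from percent of control versus compound concentration.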 The following applies: Homo sapiens.
Series [2] is described as follows: Microsomal stability assay, human liver microsomes. (Microsomes from liver hold many membrane-bound enzymes, among them those of drug oxidation.)
Series [3] deals with CYP3A4 (CYP3A) (Homo sapiens, UniProt P08684). Put plainly: in vitro. The settings on record: microsomes, pH 7.4.
Sequence of CYP3A4 (CYP3A) (P08684 2-503): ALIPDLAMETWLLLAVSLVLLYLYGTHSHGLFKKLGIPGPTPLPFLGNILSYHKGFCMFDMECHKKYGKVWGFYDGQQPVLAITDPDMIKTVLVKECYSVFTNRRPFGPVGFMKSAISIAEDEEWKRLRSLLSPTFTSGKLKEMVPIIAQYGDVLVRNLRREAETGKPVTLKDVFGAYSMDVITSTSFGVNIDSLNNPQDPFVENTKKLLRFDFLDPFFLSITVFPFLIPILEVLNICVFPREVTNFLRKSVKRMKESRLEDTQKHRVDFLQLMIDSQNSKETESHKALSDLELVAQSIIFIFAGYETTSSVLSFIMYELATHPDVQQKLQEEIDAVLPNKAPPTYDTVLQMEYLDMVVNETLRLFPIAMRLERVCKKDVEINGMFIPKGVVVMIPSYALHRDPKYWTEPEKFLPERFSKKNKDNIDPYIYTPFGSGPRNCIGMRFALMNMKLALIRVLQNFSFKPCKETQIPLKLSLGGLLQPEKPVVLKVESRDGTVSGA
Series [4] can be described thus: Microsomal stability assay, rat liver microsomes.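 Also: rat liver microsomes (0.25 mg/mL) with about 1 µM compound plus 1 mM NADPH, pH 7.4, 37 °C for 30 min, parent left measured by LC-MS/MS against 0 min.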
Series [5] concerns the target CYP2D6 (Homo sapiens, UniProt P10635). Put plainly: CYP2D6 inhibition assay (bufuralol, pooled human liver microsomes).
In series [6] the target is Beta Secretase enzyme (BACE) (Homo sapiens, UniProt P56817). The series is described as follows: In vitro enzymatic BACE FRET (fluorescence resonance energy transfer) assay.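 Also: fluorescence read after 1 h with 50 nM quenched peptide substrate spanning the BACE cleavage site, in pH 4.2 acetate buffer containing 10% DMSO and nonionic detergent.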 The series is classed as biochemical.
Sequence of Beta Secretase enzyme (BACE) (P56817 46-501): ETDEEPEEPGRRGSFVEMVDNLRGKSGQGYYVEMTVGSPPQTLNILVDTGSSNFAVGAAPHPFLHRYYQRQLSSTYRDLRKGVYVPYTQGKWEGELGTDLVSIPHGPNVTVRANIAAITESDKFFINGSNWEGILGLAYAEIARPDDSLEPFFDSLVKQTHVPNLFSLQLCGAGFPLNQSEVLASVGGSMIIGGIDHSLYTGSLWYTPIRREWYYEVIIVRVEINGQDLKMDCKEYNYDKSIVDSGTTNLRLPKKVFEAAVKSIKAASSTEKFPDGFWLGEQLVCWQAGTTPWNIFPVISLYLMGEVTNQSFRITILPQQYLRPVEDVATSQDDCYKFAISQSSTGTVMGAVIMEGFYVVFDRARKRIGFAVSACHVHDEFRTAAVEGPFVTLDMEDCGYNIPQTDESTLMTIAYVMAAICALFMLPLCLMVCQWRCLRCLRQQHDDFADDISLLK
[7] abbreviates: HEK293, HEK cells, read-out: HEK cell assay (IC50).
Setting [8] is: read-out: BACE1 FRET assay (IC50).
Where [9] appears, read: HEK293, HEK cell-based assay, IC50's in uM, read-out: HEK cell assay.
[10] abbreviates: 2D6 IC50 (uM), CYP enzyme inhibition.
The mark [11] stands for this setting: BACE enzyme assay, IC50's in uM, read-out: BACE1 FRET assay.
Setting [12] is: HEK293, HEK cell-based assay IC50, read-out: HEK cell assay.
Where [13] appears, read: 2D6 IC50 (uM), CYP2D6 inhibition.
The mark [14] stands for this setting: BACE enzyme assay IC50, read-out: BACE1 FRET assay.
The mark [15] stands for this setting: HEK293, HEK cells, read-out: HEK cell assay.
[16] abbreviates: BACE enzyme assay, read-out: BACE1 FRET assay.
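For HLM in this document: pooled human liver microsomes at 0.25 mg/mL with 1 µM compound and NADPH at 37 °C, pH 7.4, for 30 min, unchanged parent quantified by LC-MS/MS against the 0 min sample.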

Sequence of CYP2D6 (P10635 whole entry): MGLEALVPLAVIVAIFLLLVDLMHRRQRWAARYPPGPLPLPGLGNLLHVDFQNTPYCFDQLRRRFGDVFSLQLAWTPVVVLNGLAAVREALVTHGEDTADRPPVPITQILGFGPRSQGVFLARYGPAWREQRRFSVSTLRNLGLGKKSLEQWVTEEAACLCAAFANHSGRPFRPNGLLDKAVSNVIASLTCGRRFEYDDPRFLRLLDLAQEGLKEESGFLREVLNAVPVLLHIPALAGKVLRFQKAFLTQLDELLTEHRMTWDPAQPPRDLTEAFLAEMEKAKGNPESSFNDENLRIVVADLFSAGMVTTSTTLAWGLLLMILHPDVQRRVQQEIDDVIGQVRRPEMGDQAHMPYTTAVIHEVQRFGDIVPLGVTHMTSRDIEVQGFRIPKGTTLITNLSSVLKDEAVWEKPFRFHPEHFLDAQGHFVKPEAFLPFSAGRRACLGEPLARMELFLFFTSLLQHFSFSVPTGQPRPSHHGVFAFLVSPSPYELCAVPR

Consider `COCC(=O)N[C@@H](Cc1cccc(F)c1)[C@H](O)CN[C@H]1CC2(CCC2)Oc2c(-c3ccncc3F)cc(CC(C)(C)C)cc21` [compound 668], for which the IC50 in series [1] (setting [7]) came out at 0.018 µM; in series [3] it was 100 nM; in series [5] (2D6 IC50, CYP2D6 inhibition), 2.9 µM; in series [6] (setting [8]), 0.004 µM. In series [2] (human liver microsomes), this compound had an HLM of 118 µL/min/mg. For the same compound, the RLM in series [4] (rat liver microsomes) was determined as 197 µL/min/mg.
With `COCCC(=O)N[C@@H](Cc1cccc(-c2nccs2)c1)[C@H](O)CN[C@H]1CC2(CCC2)Oc2ncc(CC(C)(C)C)cc21` [compound 791], the IC50 in series [1] (setting [9]) came to 0.012 µM; in series [3], 100 nM; in series [5] (setting [10]) it was 0.6 µM; in series [6] (setting [11]), 0.009 µM. Moreover, the “HLM” value in series [2] (human liver microsomal data) is 43 µL/min/mg. In addition, the “RLM” value in series [4] (rat liver microsomal data) is 33 µL/min/mg.
Take `COCC(=O)N[C@@H](Cc1cc(F)cc(F)c1)[C@H](O)CN[C@H]1CC2(CCC2)Oc2c(-c3nccs3)cc(CC(C)C)cc21` [compound 460]: the IC50 in series [1] (HEK293, Table 2, HEK cells, read-out: HEK cell assay) stood at 0.028 µM; in series [3] it was 800 nM; in series [5] (2D6 IC50, CYP enzyme inhibition), 3.9 µM; in series [6] (Table 2, read-out: BACE1 FRET assay), 0.001 µM. For the same compound, the HLM in series [2] (human liver microsomal data) came out at 775 µL/min/mg. In series [4] (rat liver microsomal data), the RLM worked out at 775 µL/min/mg.
Take `CO[C@H](C)C(=O)N[C@@H](Cc1ccc(F)c(-c2nccs2)c1)[C@H](O)CN[C@H]1CC2(CCC2)Oc2ncc(CC(C)(C)F)cc21` [compound 760]: the IC50 in series [1] (setting [9]) was found to be 0.1 µM; in series [3], 300 nM; in series [5] (setting [10]), 0.8 µM; in series [6] (setting [11]), 0.031 µM. In addition, the “HLM” value in series [2] (human liver microsomal data) was 26 µL/min/mg. In addition, the “RLM” value in series [4] (rat liver microsomal data) was 31 µL/min/mg.
As to `COCC(=O)N[C@@H](Cc1cc(F)cc(F)c1)[C@H](O)CN[C@H]1CC2(CCC2)Oc2c1cc(C1CC1)cc2-n1ccnc1` [compound 706], the IC50 in series [1] (setting [12]) is 0.02 µM; in series [3], 100 nM; in series [5] (setting [13]), 0.3 µM; in series [6] (setting [14]) it was 0.062 µM. The “HLM” value in series [2] (human liver microsomes) was determined as 41 µL/min/mg. In addition, the “RLM” value in series [4] (rat liver microsomes) worked out at 33 µL/min/mg.
As for `COCC(=O)N[C@H](Cc1cccc(-c2nccs2)c1)[C@@H](O)CN[C@H]1CC2(CCC2)Oc2ccc(CC(C)(C)C)cc21` [compound 701, N-((1R,2S)-3-(((4S)-6-(2,2-dimethylpropyl)-3,4-dihydrospiro[chromene-2,1′-cyclobutan]-4-yl)amino)-2-hydroxy-1-(3-(1,3-thiazol-2-yl)benzyl)propyl)-2-methoxyacetamide], the IC50 was 0.033 µM in series [1] (setting [12]), 200 nM in series [3], 0.7 µM in series [5] (setting [13]) and 0.008 µM in series [6] (setting [14]). Further, the “HLM” value in series [2] (human liver microsomes) worked out at 137 µL/min/mg. In series [4] (rat liver microsomes), the “RLM” value was 160 µL/min/mg.
For the compound `CC(=O)N[C@@H](Cc1ccc(F)c(-c2ccncc2)c1)[C@H](O)CN[C@H]1CC2(CCC2)Oc2ncc(CC(C)(C)C)cc21` [compound 602], the IC50 in series [1] (setting [7]) amounted to 0.018 µM; in series [3], 160 nM; in series [5] (2D6 IC50, CYP2D6 inhibition) it was 0.4 µM; in series [6] (setting [8]) it was 0.023 µM. This compound showed an HLM in series [2] (human liver microsomes) of 124 µL/min/mg. The RLM in series [4] (rat liver microsomes) came out at 78 µL/min/mg.
Consider `COCC(=O)N[C@@H](Cc1cc(F)cc(F)c1)[C@H](O)CN[C@H]1CC2(CCC2)Oc2c1cc(CC(C)(C)C)nc2Nc1cccnc1` [compound 568], for which the IC50 in series [1] (setting [15]) is 0.019 µM; in series [3], 200 nM; in series [5] (setting [10]) it was 9.3 µM; in series [6] (setting [16]), 0.025 µM. Also, the “HLM” value in series [2] (human liver microsomal data) is 214 µL/min/mg. In addition, in series [4] (rat liver microsomal data), the “RLM” value was determined as 304 µL/min/mg.
Regarding `COCC(=O)N[C@@H](Cc1cccc(F)c1)[C@H](O)CN[C@H]1CC2(CCC2)Oc2c1cc(CC(C)C)cc2-n1ccnc1` [compound 520], the IC50 in series [1] (setting [15]) was determined as 0.009 µM; in series [3], 100 nM; in series [5] (setting [10]) it was 0.9 µM; in series [6] (setting [16]), 0.018 µM. The “HLM” value in series [2] (human liver microsomal data) worked out at 32 µL/min/mg. In series [4] (rat liver microsomal data), the “RLM” value came to 144 µL/min/mg.
